{
  "source": "patent US6989390B2",
  "about": "“Amonafide salts” (priority 2002, dated 2006)",
  "key": {"[1]": {"tested_on": "COLO205 (Colorectal)", "experiment": "Hollow Fiber in vivo anti-cancer assay", "set-up": "species or system mice", "procedure": "(§1) The in vivo activity was tested using the Hollow Fiber methodology developed by the National Cancer Institute: Developmental Therapeutics Branch for use in their antineoplastic agent screening program. Specifically, the anti-cancer activity of amonafide L-malate was tested by the following protocol.\n(§2) Polyvinylidene fluoride (PVDF) hollow fibers were used. The fibers were individually flushed and filled with 70% ethanol and incubated in 70% ethanol at room temperature for a minimum of 96 hour. Following three washes with deionized water, the fibers were filled with and placed into a pan of deionized water for sterilization by autoclaving. Then the fibers were stored in water at 4° C. until used.\n(§3) Mice were grouped into 4 groups, two control groups with 6 mice per group and 2 experimental groups with 3 mice per group.\n(§4) Anesthesia was induced in mice by ketamine/acepromazine/xylazine injected intraperitoneally (i.p.) For the intraperitoneal (i.p.) implants, a small incision was made through the skin and musculature of the dorsal abdominal wall, the fiber samples were inserted into the peritoneal cavity in a craniocaudal direction and the incision was closed with a skin staple. For subcutaneous (s.c.) implants, a small skin incision was made at the nape of the neck to allow insertion of an 11 gauge tumor implant trocar. The trocar, containing the hollow fiber samples, was inserted caudally through the subcutaneous tissues and the fibers were deposited during withdrawal of the trocar. The skin incision was closed with a skin staple. Each mouse was host of 6 samples, representing 3 tumor cells lines each of which was cultured in the 2 physiologic compartments (i.p. and s.c.).\n(§5) On the day following the last drug injection, the animals were sacrificed and the hollow fibers extracted. The hollow fibers were then subjected to the stable endpoint MTT assay as described in Example 5. The optical density of each sample is determined spectrophotometrically at 540 nm and the mean of each treatment group is calculated. The percent net growth for each cell line in each treatment group is calculated as described in Example 5 and compared to the percent net growth in the vehicle treated controls (Group B) using the formula below to determine the percent growth inhibition:\n(§6) % growth inhibition=(Net GrowthControl−Net GrowthTreated)/Net GrowthControl)*100"}, "[2]": {"tested_on": "MCF-7 (Breast)", "experiment": "Hollow Fiber in vivo anti-cancer assay", "set-up": "species or system mice", "procedure": "as §1, §2, §3, §4, §5, §6"}, "[3]": {"tested_on": "PC3 (Prostate)", "experiment": "Hollow Fiber in vivo anti-cancer assay", "set-up": "species or system mice", "conditions": "for % Growth Inhibition: 29.4 mg/kg i.p. once daily days 3-8", "procedure": "as §1, §2, §3, §4, §5, §6"}, "[4]": {"tested_on": "H23 (Lung)", "experiment": "Hollow Fiber in vivo anti-cancer assay", "set-up": "species or system mice", "procedure": "as §1, §2, §3, §4, §5, §6"}, "[5]": {"tested_on": "MDA-231 (Breast)", "experiment": "Hollow Fiber in vivo anti-cancer assay", "set-up": "species or system mice", "procedure": "as §1, §2, §3, §4, §5, §6"}, "[6]": {"experiment": "Daily body weight and general health monitoring during the hollow fiber study", "type": "in vivo", "conditions": "mice, monitored daily for 6 days, i.p. dosing", "procedure": "Individual mouse body weights were recorded daily and animals were monitored daily for general health for 6 days."}},
  "data": [
    {"compound": "CN(C)CCN1C(=O)c2cccc3cc(N)cc(c23)C1=O.O=C(O)C[C@H](O)C(=O)O", "note": "[Amonafide Malate]", "values": [
      {"measurement": "percent growth inhibition (text summary of Tables 6-8)", "setting": "[1]; COLO205 (colorectal cancer)", "value": "Significant percent growth inhibition"},
      {"measurement": "% Growth Inhibition", "setting": "[1]; COLO205, I.P. fibers, 15 mg/kg i.p. twice-daily", "value": 82, "unit": "%"},
      {"measurement": "% Growth Inhibition", "setting": "[1]; COLO205, I.P. fibers, 29 mg/kg i.p. twice-daily", "value": 98, "unit": "%"},
      {"measurement": "% Growth Inhibition", "setting": "[1]; COLO205, IP, 29.4 mg/kg i.p. once daily days 3-8", "value": 84.6, "unit": "%"},
      {"measurement": "% Growth Inhibition", "setting": "[1]; COLO205, S.C. fibers, 15 mg/kg i.p. twice-daily", "value": 50, "unit": "%"},
      {"measurement": "% Growth Inhibition", "setting": "[1]; COLO205, S.C. fibers, 29 mg/kg i.p. twice-daily", "value": 76, "unit": "%"},
      {"measurement": "% Growth Inhibition", "setting": "[1]; COLO205, SC, 29.4 mg/kg i.p. once daily days 3-8", "value": 80.4, "unit": "%"},
      {"measurement": "% Growth Inhibition", "setting": "[2]; MCF-7, I.P. fibers, 15 mg/kg i.p. twice-daily", "value": 97, "unit": "%"},
      {"measurement": "% Growth Inhibition", "setting": "[2]; MCF-7, I.P. fibers, 29 mg/kg i.p. twice-daily", "value": 124, "unit": "%"},
      {"measurement": "% Growth Inhibition", "setting": "[2]; MCF-7, IP, 29.4 mg/kg i.p. once daily days 3-8", "value": 150.2, "unit": "%"},
      {"measurement": "% Growth Inhibition", "setting": "[2]; MCF-7, S.C. fibers, 15 mg/kg i.p. twice-daily", "value": 83, "unit": "%"},
      {"measurement": "% Growth Inhibition", "setting": "[2]; MCF-7, S.C. fibers, 29 mg/kg i.p. twice-daily", "value": 107, "unit": "%"},
      {"measurement": "% Growth Inhibition", "setting": "[2]; MCF-7, SC, 29.4 mg/kg i.p. once daily days 3-8", "value": 116.1, "unit": "%"},
      {"measurement": "percent growth inhibition (text summary of Tables 6-8)", "setting": "[2]; MCF-7, above 100% indicates lethality for cancerous cells", "value": "above 100%"},
      {"measurement": "% Growth Inhibition", "setting": "[3]; PC3, IP", "value": 71.6, "unit": "%"},
      {"measurement": "% Growth Inhibition", "setting": "[3]; PC3, SC", "value": 52.9, "unit": "%"},
      {"measurement": "percent growth inhibition (text summary of Tables 6-8)", "setting": "[3]; PC-3 (prostate)", "value": "Significant percent growth inhibition"},
      {"measurement": "% Growth Inhibition", "setting": "[4]; H23, I.P. fibers, 15 mg/kg i.p. twice-daily", "value": 36, "unit": "%"},
      {"measurement": "% Growth Inhibition", "setting": "[4]; H23, I.P. fibers, 29 mg/kg i.p. twice-daily", "value": 47, "unit": "%"},
      {"measurement": "% Growth Inhibition", "setting": "[4]; H23, S.C. fibers, 15 mg/kg i.p. twice-daily", "value": 13, "unit": "%"},
      {"measurement": "% Growth Inhibition", "setting": "[4]; H23, S.C. fibers, 29 mg/kg i.p. twice-daily", "value": 27, "unit": "%"},
      {"measurement": "% Growth Inhibition", "setting": "[5]; MDA-231, I.P. fibers, 15 mg/kg i.p. twice-daily", "value": 93, "unit": "%"},
      {"measurement": "% Growth Inhibition", "setting": "[5]; MDA-231, I.P. fibers, 29 mg/kg i.p. twice-daily", "value": 108, "unit": "%"},
      {"measurement": "% Growth Inhibition", "setting": "[5]; MDA-231, S.C. fibers, 15 mg/kg i.p. twice-daily", "value": 79, "unit": "%"},
      {"measurement": "% Growth Inhibition", "setting": "[5]; MDA-231, S.C. fibers, 29 mg/kg i.p. twice-daily", "value": 113, "unit": "%"},
      {"measurement": "percent growth inhibition (text summary of Tables 6-8)", "setting": "[5]; MDA-231, above 100% indicates lethality for cancerous cells", "value": "above 100%"},
      {"measurement": "premature sacrifice for body weight loss of greater than 20% or other signs of toxicity", "setting": "[6]", "value": "not necessary to sacrifice any animals"}
    ]}
  ]
}
